Experimental findings from publication PMC6327999, “Hydroxyl-substituted double Schiff-base condensed 4-piperidone/cyclohexanones as potential anticancer agents with biological evaluation” (Journal of Enzyme Inhibition and Medicinal Chemistry, 2019) are described below.

Test [1] deals with human lung carcinoma cells (A549). Nature of the test: Cytotoxicity, MTT assay, A549. It counts as cell-based. As to conditions: for IC50: Homo sapiens, A549, MTT, 24 hours; for A549 SI: quotient of the IC50 values towards nonmalignant LO2 cells. An excerpt:
(§1) Compounds 2a–d, 3a–e, 4a–e, 5a–d, and 6a–c were screened against human neoplastic cell lines such as human lung carcinoma cells (A549), human gastric adenocarcinoma cells (SGC7901), human cervical carcinoma cells (HeLa), human liver hepatocellular carcinoma cell line (Hepg2), human chronic myelogenous leukemia cell line (K562), human acute mononuclear granulocyte leukemia (THP-1), human normal heptical cell line (LO2) (Table 1) using modified MTT assay (3-(4,5-dimethyl-2-thiazolyl)-2,5-diphenyl-2-H-tetrazolium bromide, MTT, Dojindo Laboratories, Tokyo, Japan). All cell lines were maintained at 37 °C in a humidified 5% CO2 and 95% air atmosphere. The HePG2 cell lines were cultured in DMEM containing 10% fetal bovine serum. Other cell lines were grown in medium 1640 and supplemented with 10% fetal bovine serum. […] Controls were prepared with 0.1% DMSO (v/v) only. The cells were seeded in a 96-well plate in 200 µL medium per well at a density of 1 × 10^4 cells/well for 24 hours. The cells were treated with serial concentrations of compound and incubated for 24 hours. Cells with only culture media were used as control. After the media was removed, 20 µL of MTT (5 mg/mL) was added then the plates were incubated for 4 hours at 37 °C in cell culture incubator. The MTT containing media were removed and then 150 µL of DMSO was added to dissolve the dark-blue formazan crystals. The optical density (OD) was measured by a multi-well plate reader (TECAN, Männedorf, Switzerland) at 570 nm. The results are expressed as a decrease in the cell viability (%) in comparison to untreated controls. The concentration of each compound was examined in triplicate, and the IC50 values are expressed in Table 1. The concentrations of the compounds were 50, 20, 10, 5, 2.5, 1, 0.5, 0.1, 0.05 and 0.01 µg/mL. Doxorubicin (DOX) and Curcumin were used as positive controls. […] The concentrations of curcumin used were 100, 50, 25, 12.5, 6.25, 3.125, 1, 0.5 and 0.1 µg/mL.
(In general: Formazan colour is commonly taken as a measure of viable cells.)

Test [2] concerns human gastric adenocarcinoma cells (SGC7901). Put plainly: Cytotoxicity, MTT assay, SGC7901. Type of test: cell-based. The conditions noted are these: for IC50: Homo sapiens, SGC-7901, MTT, 24 hours; for SGC7901 SI: quotient of the IC50 values towards nonmalignant LO2 cells.
Source text: as §1

The test system of test [3] is human liver hepatocellular carcinoma cell line (Hepg2). Put plainly: Cytotoxicity, MTT assay, HePG2. It counts as cell-based. As to conditions: for IC50: Homo sapiens, HepG2, MTT, 24 hours; for HePG2 SI: quotient of the IC50 values towards nonmalignant LO2 cells.
Source text: as §1, with “µg/mL.” for “µg/mL. Doxorubicin (DOX) and Curcumin were used as positive controls.”

Test [4] deals with human cervical carcinoma cells (HeLa). Put plainly: Cytotoxicity, MTT assay, HeLa. The conditions noted are these: for IC50: Homo sapiens, HeLa, MTT, 24 hours; for HeLa SI: quotient of the IC50 values towards nonmalignant LO2 cells. It counts as cell-based.
Source text: as §1

Test [5] relates to human chronic myelogenous leukemia cell line (K562). Nature of the test: Cytotoxicity, MTT assay, K562. Type of test: cell-based. The conditions noted are these: for IC50: Homo sapiens, K562, MTT, 24 hours; for K562 SI: quotient of the IC50 values towards nonmalignant LO2 cells.
Source text: as §1

The subject of test [6] is human acute mononuclear granulocyte leukemia (THP-1). Put plainly: Cytotoxicity, MTT assay, THP-1. It counts as cell-based. As to conditions: for IC50: Homo sapiens, THP-1, MTT, 24 hours; for THP-1 SI: quotient of the IC50 values towards nonmalignant LO2 cells.
Source text: as §1

For test [7], the system named is human normal heptical cell line (LO2). Put plainly: Cytotoxicity, MTT assay, non-malignant LO2. It counts as cell-based. As to conditions: 24 hours, non-malignant cells.
Source text: as §1

The test system of test [8] is human carcinoma cell lines A549, SGC7901, HePG2, HeLa, K562, THP-1. Nature of the test: Cytotoxicity, MTT assay, panel of human carcinoma cell lines (average / overall). Type of test: cell-based. The conditions noted are these: average over the six carcinoma cell lines; for IC50: Homo sapiens, read-out: Ave IC50.
Source text: as §1
The cytotoxicity activities against human carcinoma cell lines A549, SGC7901, HePG2, HeLa, K562, THP-1 and cytotoxicity toward LO2 cell lines were evaluated by MTT method. DOX and curcumin were used as positive control. The selectivity index (SI) is the quotient of the IC50 values towards nonmalignant LO2 cells. […] Especially for 4a–e, 5a–d, and 6a–c, this ratio can reach about 92%.

A further test relates to HepG2 xenografts. Nature of the test: In vivo antitumor efficacy, HepG2-bearing nude mice. As to conditions: DOX 1.0 mg/kg every two days for 20 days. Further details: species or system Balb/c nude mice. On the procedure:
The antitumor effect was investigated on the seven-week-old female Balb/c nude mice (n = 30) weighing 19–21 grams (Shanghai Laboratory Animal Center). Briefly, 0.2 mL HepG2 cells (1 × 10^7/mL) were inoculated subcutaneously into the alar left of each mouse. On the third day after the inoculation, the HepG2-bearing mice were randomly divided into five groups (n = 6/group) and administrated the according drug or solvent. […] The control group was administrated of saline as negative control. The body weight and tumor volumes calculation were recorded from the day of treatment, and the tumor volumes were calculated using the following equation: tumor volume = length × (width)^2 × π/6. Animal experiments were reviewed and approved by the Binzhou Medical University Experimental Animal Committee.

For `COc1ccc(/C=N/c2ccc(F)c(/C=C3\CNC/C(=C\c4cc(/N=C/c5ccc(OC)cc5O)ccc4F)C3=O)c2)c(O)c1` [5d], in [1], the IC50 (commonly the point on the concentration scale where inhibition reaches its midpoint) is 2500 ± 100 nM and the “A549 SI” value is reported as 5.8. Moreover, in [2], inhibition was half-maximal at 1800 ± 100 nM (IC50) and the “SGC7901 SI” value amounted to 8.3. Besides, in test [3], it took 2700 ± 200 nM to reach half-maximal inhibition (IC50) and the “HePG2 SI” value is given as 5.6. In addition, in test [4], it took 3800 ± 200 nM to reach half-maximal inhibition (IC50) and the “HeLa SI” value came out at 3.8. For the same compound, in test [5], the IC50 was 1500 ± 100 nM and the “K562 SI” value amounted to 9.7. In test [6], the IC50 was 2100 ± 200 nM and the “THP-1 SI” value is 6.8. Half-maximal inhibition in test [7] (IC50) was put at 14.6 ± 1.26 µM. In addition, in [8], the IC50 came out at 2400 nM and the “Ave SI” value was found to be 6.7.

As for `CN1C/C(=C\c2cc(/N=C/c3cccc(O)c3O)ccc2F)C(=O)/C(=C/c2cc(/N=C/c3cccc(O)c3O)ccc2F)C1` [6a], in test [1], half-maximal inhibition (IC50) required 1900 ± 100 nM and the “A549 SI” value is 11.6. In addition, in [2], it took 2400 ± 100 nM to reach half-maximal inhibition (IC50) and the “SGC7901 SI” value is reported as 9.2. Moreover, in test [3], the IC50 stood at 2600 ± 100 nM and the “HePG2 SI” value is on record as 8.4. Moreover, in test [4], the IC50 is 2200 ± 200 nM and the “HeLa SI” value is given as 9.9. For the same compound, in [5], the IC50 was found to be 2800 ± 200 nM and the “K562 SI” value came to 7.7. Further, in test [6], the IC50 came out at 1500 ± 200 nM and the “THP-1 SI” value is given as 14.2. This compound also registered an IC50 in test [7] of 21.7 ± 2 µM. Further, in test [8], the half-inhibitory concentration (IC50) was found to be 2200 nM and the “Ave SI” value turned out to be 10.2.

`CN1C/C(=C\c2cc(/N=C/c3cc(O)ccc3O)ccc2F)C(=O)/C(=C/c2cc(/N=C/c3cc(O)ccc3O)ccc2F)C1` [6b]: in [1], 2300 ± 100 nM corresponded to half-maximal inhibition (IC50) and the “A549 SI” value was determined as 9.1. Further, in test [2], the IC50 came to 2600 ± 100 nM and the “SGC7901 SI” value worked out at 8.3. For the same compound, in test [3], half-maximal inhibition (IC50) was put at 2700 ± 200 nM and the “HePG2 SI” value amounted to 7.8. In [4], half-maximal inhibition (IC50) required 3400 ± 400 nM and the “HeLa SI” value was 6.2. In test [5], the midpoint of inhibition, the IC50, lay at 5100 ± 300 nM and the “K562 SI” value amounted to 4.2. Further, in test [6], the IC50 was determined as 1800 ± 100 nM and the “THP-1 SI” value is reported as 12.0. The same compound returned an IC50 in test [7] of 21.3 ± 2 µM. For the same compound, in test [8], the IC50 came to 3000 nM and the “Ave SI” value worked out at 7.9.

On to `CN1C/C(=C\c2cc(/N=C/c3ccc(O)c(O)c3O)ccc2F)C(=O)/C(=C/c2cc(/N=C/c3ccc(O)c(O)c3O)ccc2F)C1` [6c], for which the IC50 in test [1] worked out at 1500 ± 200 nM; in [2], 2000 ± 200 nM; in test [3], 2600 ± 200 nM; in [4], 2500 ± 100 nM; in [5] it was 1900 ± 200 nM; in test [6], 1600 ± 100 nM. Also, the IC50 in test [7] turned out to be 18.4 ± 1 µM; in test [8], 2000 nM. Besides, the “A549 SI” value in test [1] was 12.5. For the same compound, in test [2], the “SGC7901 SI” value is 9.3. Further, the “HePG2 SI” value in test [3] is recorded as 7.1. The “HeLa SI” value in [4] is on record as 7.5. The “K562 SI” value in test [5] was found to be 9.5. Also, the “THP-1 SI” value in [6] stood at 11.4. In test [8], the “Ave SI” value is given as 9.5.

Consider `COc1cc(/C=C/C(=O)CC(=O)/C=C/c2ccc(O)c(OC)c2)ccc1O` [Curcumin, reference compound], for which, in test [1], inhibition was half-maximal at 19400 ± 200 nM (IC50) and the “A549 SI” value worked out at 1.4. Also, in [2], half-maximal inhibition (IC50) required 21500 ± 300 nM and the “SGC7901 SI” value is given as 1.3. Besides, in [3], the IC50 was 16000 ± 200 nM and the “HePG2 SI” value is given as 1.7. Also, in test [4], inhibition was half-maximal at 23800 ± 1300 nM (IC50) and the “HeLa SI” value was found to be 1.2. Moreover, in test [5], inhibition was half-maximal at 22100 ± 800 nM (IC50) and the “K562 SI” value is 1.2. In test [6], the IC50 was 21700 ± 400 nM and the “THP-1 SI” value is recorded as 1.3. The compound also displayed an IC50 in [7] of 27.5 ± 0.4 µM. Further, in [8], the IC50 amounted to 20800 nM and the “Ave SI” value was 1.4.

As to `COc1cccc2c1C(=O)c1c(O)c3c(c(O)c1C2=O)C[C@@](O)(C(=O)CO)C[C@@H]3O[C@H]1C[C@H](N)[C@H](O)[C@H](C)O1` [DOX, Doxorubicin, reference compound], the IC50 was 3800 ± 100 nM in [1]; 7000 ± 400 nM in [2]; 600 ± 100 nM in test [3]; 2100 ± 300 nM in [4]; 1600 ± 200 nM in test [5]; 500 ± 200 nM in test [6]. For the same compound, the IC50 is 6.1 ± 0.5 µM in test [7] and 2600 nM in [8]. Besides, the tumor growth inhibition result in the test on HepG2 xenografts is recorded as “suppressed significantly”.
